Measurements reported in patent US8124365B2, “Identification of genotype-selective anti-tumor agents” (Whitehead Institute for Biomedical Research, priority 2003, dated 2012).

Key:
Format in all cases: cell-based, human
[1] = system: BJ-TERT/LT/ST/RAS^V12 cells; experiment: Calcein AM viability assay, dilution series, BJ-TERT/LT/ST/RAS^V12 tumorigenic cells
Description: Described here is work carried out to identify compounds with increased potency or activity in the presence of hTERT, LT, ST, E6, E7 or RAS^V12. […] The primary screen tested (in quadruplicate) the effect of treating tumorigenic […], corresponding to 10 μM for a compound with a molecular weight of 400, which is the approximate median molecular weight of the libraries. […] In live cells, calcein AM is cleaved by intracellular esterases, forming the anionic fluorescent derivative calcein, which cannot diffuse out of live cells. […] The IC50 value (concentration required to inhibit 50% of the calcein AM signal) was calculated for each compound in each cell line (Table 1).
Calcein acetoxylmethyl ester (AM) is a cell membrane-permeable, non-fluorescent compound that is cleaved by intracellular esterases to form the anionic, cell-impermeable, fluorescent compound calcein. Viable cells are stained by calcein because of the presence of intracellular esterases and because the intact plasma membrane prevents fluorescent calcein from leaking out of cells (Wang et al., 1993, supra). Cells were seeded in 384-well plates using a Zymark Sciclone ALH, treated with each […], washed with phosphate-buffered saline on a Packard Minitrak with a 384-well washer and incubated for four hours with 0.7 μg/mL calcein (Molecular Probes). Total fluorescence intensity in each well was recorded on a Packard Fusion platereader, and converted to a percent inhibition of signal by subtracting the instrument background and dividing by the average signal obtained when cells were not treated with any compound.
Compounds to be retested were purchased from manufacturers. Stocks were prepared in DMSO at a concentration of 1 mg/ml in 384-well polypropylene plates with a 16-point, two-fold dilution dose curve of each compound in a column, in duplicates. Column 1-2 and 23-24 were left empty for controls. Daughter retest plates were prepared from stock retest plate by diluting 66.6 fold in DMEM in 384-well deep-deep well plates (4.5 μl transfer into 300 μl). Cells were seeded at a density of 6000 per well in 40 μl, and 20 μl was added from a daughter retest plate. […]
The IC50 in primary BJ cells was divided by the IC50 in BJ-TERT/LT/ST/RAS^V12 tumorigenic cells to obtain a tumor selectivity ratio for each compound. The compound selectivity for each genetic element was determined by calculating the selectivity ratio for each subsequent pair of cell lines in a series.

[2] = system: BJ-TERT/LT/ST/RAS^V12 cells; experiment: Nuclear morphology assay; conditions: fluorescence microscopy, 9 μM erastin or 1.1 μM camptothecin, 18 hours
Description: 200,000 tumorigenic BJ-TERT/LT/ST/RAS^V12 cells were seeded in 2 mL on glass coverslips in each well of a six-well dish, treated with nothing (NT), 9 μM erastin or 1.1 μM camptothecin (CPT) in growth medium for 18 hours while incubating at 37° C. with 5% CO2. Nuclei were stained with 25 μg/mL Hoechst 33342 (Molecular Probes) and viewed using an oil immersion 100× objective on a fluorescence microscope.

caspase 3 = experiment: Western blot for active, cleaved caspase 3; conditions: lysates of treated BJ-TERT/LT/ST/RAS^V12 cells
Description: BJ-TERT/LT/ST/RAS^V12 cells were seeded prior to the experiment at 5×10^5 cells in 60 mm dishes. The cells were treated with 5 μg/ml erastin (9 μM) for 2, 4, 6, 8 or 10 hours. One dish was maintained for camptothecin treatment (0.4 μg/ml for 24 h) as a positive control. Cells were lysed after each time point in lysis buffer (50 mM HEPES KOH pH 7.4, […], 2 mM EDTA, 0.5% Triton X-100, 1.5 mM Na3VO4, 50 mM NaF, 10 mM sodium pyrophosphate, 10 mM sodium beta-glycerophosphate and protease inhibitor tablet (Roche)). Protein content was quantified using a Biorad protein assay reagent. Equal amounts of protein were resolved on 16% SDS-polyacrylamide gel. The electrophoresed proteins were transblotted onto a PVDF membrane, blocked with 5% milk and incubated with anti-active caspase-3 polyclonal antibody (BD Pharmingen) at 1:1500 dilution overnight at 4° C. The membrane was then incubated in anti-rabbit-HRP (Santa Cruz Biotechnology) at 1:3000 dilution for 1 hour and developed with an enhanced chemiluminescence mixture (NEN life science, Renaissance). To test for equivalent loading in each lane, blots were stripped, blocked, and probed with an anti-eIF-4E antibody (BD Transduction laboratories) at 1:1000 dilution.

[3] = system: BJ-TERT/LT/ST/RAS^V12 cells; experiment: DNA fragmentation (DNA ladder formation)
BJ cells = experiment: Calcein AM viability assay, dilution series, BJ primary cells; conditions: two days
Text: Described here is work carried out to identify compounds with increased potency or activity in the presence of hTERT, LT, ST, E6, E7 or RAS^V12. Engineered cell lines with these genetic elements were used to screen 23,550 compounds, including 20,000 compounds from a combinatorial library, 1,990 compounds from the National Cancer Institute diversity collection, and 1,540 biologically active known compounds that were selected and purchased by Applicant and formatted into a screenable collection. […] Cell viability was measured using the dye calcein acetoxymethyl ester (calcein AM) (Wang et al., 1993, Hum. Immunol. 37, 264-270), which is a non-fluorescent compound that freely diffuses into cells. […]
Calcein acetoxylmethyl ester (AM) is a cell membrane-permeable, non-fluorescent compound that is cleaved by intracellular esterases to form the anionic, cell-impermeable, fluorescent compound calcein. […] Total fluorescence intensity in each well was recorded on a Packard Fusion platereader, and converted to a percent inhibition of signal by subtracting the instrument background and dividing by the average signal obtained when cells were not treated with any compound. […]
Mean RFU (relative fluorescence units) for untreated cells was calculated by averaging columns 1, 2, and 23 (wells with cells but lacking compounds). […]

SMILES | time required to cause death ([1]; BJ-TERT/LT/ST/RAS^V12 cells) | nuclear morphology (karyorhexis, margination of chromatin) [2] | activated (cleaved) caspase 3 (caspase 3) | DNA fragmentation (formation of a DNA ladder) [3] | IC50, concentration required to achieve 50% inhibition of calcein AM staining, BJ (BJ cells) [µg/mL] | IC50, 50% inhibition of calcein AM staining, BJ-TERT/LT/ST/Ras^v12 ([1]; BJ-TERT/LT/ST/Ras^v12 cells, two days) [µg/mL] | Tumor Selectivity ([1]; IC50 in primary BJ cells divided by IC50 in BJ-TERT/LT/ST/RAS^V12 tumorigenic cells)
CC[C@@]1(O)C(=O)OCc2c1cc1n(c2=O)Cc2cc3ccccc3nc2-1 [Camptothecin, camptothecin] | two days | karyorhexis and margination of chromatin were clearly visible | harbor activated caspase 3 | induces DNA fragmentation | – | – | –
Cc1c2ccccc2c(CSC(=N)N)c2ccccc12.Cl [NSC146109] | – | – | – | – | >5 | 2.5 | >4
